The values below come from patent publication US9783527B2, “Indazole ureas and method of use” (AbbVie Inc., priority 2014, dated 2017).

The subject of assay [1] is spinal nerve ligation-induced neuropathic pain in rats. Put plainly: Rat spinal nerve ligation (SNL) model of neuropathic pain, von Frey paw withdrawal threshold. The class given is in vivo. The following applies: SNL dose 100 mg/kg; male Sprague Dawley rats, mechanical sensitivity (von Frey). The text has this:
Rat Spinal Nerve Ligation (SNL) Model of Neuropathic Pain.
A model of spinal nerve ligation-induced (SNL model) neuropathic pain as originally described by Kim and Chung (Kim, S. H. and J. M. Chung, 1992, Pain 50, 355) was used to test a compound of the present application. The male Sprague Dawley rats (Charles River Laboratories, Wilmington, Mass.), weighing 150-175 g at the time of surgery, were placed under isoflurane anesthesia and a 1.5 cm incision was made dorsal to the lumbosacral plexus. The paraspinal muscles (left side) were separated from the spinous processes, the left L5 and L6 spinal nerves isolated, and tightly ligated with 5-0 silk suture distal to the dorsal root ganglion. Care was taken to avoid ligating the L4 spinal nerve. Following spinal nerve ligation, a minimum of 7 days of recovery and no more than 3 weeks was allowed prior to the behavioral testing (mechanical sensitivity). Only rats with threshold scores ≦4.5 g were considered allodynic and utilized in pharmacological experiments.
Mechanical sensitivity was measured using calibrated von Frey filaments (Stoelting, Wood Dale, Ill.). Paw withdrawal threshold (PWT) was determined by using the Dixon's up-down method (Dixon, W. J., 1980, Ann. Rev. Pharmacol. Toxicol., 20, 441). Rats were placed into inverted individual plastic containers (20×12.5×20 cm) on top of a suspended wire mesh with a 1 cm^2 grid to provide access to the ventral side of the hind paws, and acclimated to the test chambers for 20 minutes. The von Frey filaments were presented perpendicularly to the plantar surface of the selected hind paw, and then held in this position for approximately 8 seconds with enough force to cause a slight bend in the filament. Positive responses included an abrupt withdrawal of the hind paw from the stimulus, or flinching behavior immediately following removal of the stimulus. A 50% withdrawal threshold was determined using an up-down procedure (Dixon, 1980). A percent maximal possible effect (% MPE) of testing compound was calculated according to the formula: (Log [compound-treated threshold]−Log [vehicle-treated threshold])/(Log [maximum threshold]−Log [vehicle-treated threshold])×100%, where the maximum threshold was equal to 15 g.
The animals were housed in Association for Assessment and Accreditation of Laboratory Animal Care (AAALAC) approved facilities at AbbVie Inc. in a temperature-regulated environment under a controlled 12-hour light-dark cycle, with lights on at 6:00 a.m. Food and water were available ad libitum at all times except during testing. All testing was done following procedures outlined in protocols approved by AbbVie Inc.s' Institutional Animal Care and Use Committee.

Assay [2] relates to MIA-induced osteoarthritic pain in rats. Nature of the assay: Osteoarthritic (OA) pain induced by sodium monoiodoacetate (MIA), hind limb grip force. The class given is in vivo, rat. The following applies: male Sprague Dawley rats, grip force 20 days after MIA injection. The protocol:
Osteoarthritic (OA) Pain Induced by Sodium Monoiodoacetate (MIA)
Pain behavior was assessed by measurement of hind limb grip force (GF) in adult osteoarthritic rats. Male Sprague Dawley rats, obtained from Charles River Laboratories, (Wilmington, Mass.), weighing 150-175 g, were injected in the unilateral knee join with a single intra-articular injection of sodium monoiodoacetate (MIA, 3 mg/rat). All rats were tested at 20 days following MIA injection. A behavioral measure of activity-induced pain was carried out. Measurements of the peak hind limb grip force were conducted by recording the maximum compressive force (CFmax), in grams of force, exerted on a hind limb strain gauge setup, in a commercially available grip force measurement system (Columbus Instruments, Columbus, Ohio).
During testing, each rat was gently restrained by grasping it around its rib cage and then allowed to grasp the wire mesh frame attached to the strain gauge. The experimenter then moved the animal in a rostral-to-caudal direction until the grip was broken. Each rat was sequentially tested twice at an approximately 2-3 minute interval to obtain a raw mean grip force (CFmax). This raw mean grip force data was in turn converted to a maximum hindlimb cumulative compressive force (CFmax), as the grams of force/kg of body weight, for each animal.
For evaluating the compound effects, the hind limb grip force was conducted 20 days following the intra-articular injection of MIA. A group of age-matched nave (not injected with MIA) animals was added as a comparator to the drug-dosed groups. The vehicle control response for each group of MIA-treated animals was defined as the 0% response (0% effect), whereas the nave control group was defined as the normal response and as 100% effect. The % effect for each dose group was expressed as % return of response to normalcy, compared to the nave group. A percent maximal possible effect (% MPE) of testing compound was calculated according to the formula: (Treatment CFmax−Vehicle CFmax)/Vehicle CFmax]×100). Higher % effect numbers indicate increased relief from the pain in the model, with 100% indicating a return to the level of response seen in normal (non-osteoarthritic) animals. All experiments evaluating drug effects in this model were conducted in a randomized blinded fashion.
The animals were housed in Association for Assessment and Accreditation of Laboratory Animal Care (AAALAC) approved facilities at AbbVie Inc. in a temperature-regulated environment under a controlled 12-hour light-dark cycle, with lights on at 6:00 a.m. Food and water were available ad libitum at all times except during testing. All testing was done following procedures outlined in protocols approved by AbbVie Inc.'s Institutional Animal Care and Use Committee.

The next assay deals with human Nav1.7 (Homo sapiens (Human), UniProt Q15858). Nature of the assay: FRET-based membrane potential assay, recombinant human sodium channel Nav1.7. Type of assay: cell-based. The following applies: HEK293 cells stably expressing recombinant human Nav1.7; depolarization with veratridine (EC80) + scorpion venom. In outline: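 IC50 derived by four-parameter Hill fit of percent inhibition of depolarization, measured as peak F440-480/F565-625 ratio over baseline. Stable human Nav1.7 HEK293 cells, dye-loaded with CC2-DMPE and DiSBAC2(3)/VABSC-1 at room temperature, received compound 3 min ahead of veratridine (EC80) plus scorpion venom.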
Chain of human Nav1.7 (Q15858 whole entry): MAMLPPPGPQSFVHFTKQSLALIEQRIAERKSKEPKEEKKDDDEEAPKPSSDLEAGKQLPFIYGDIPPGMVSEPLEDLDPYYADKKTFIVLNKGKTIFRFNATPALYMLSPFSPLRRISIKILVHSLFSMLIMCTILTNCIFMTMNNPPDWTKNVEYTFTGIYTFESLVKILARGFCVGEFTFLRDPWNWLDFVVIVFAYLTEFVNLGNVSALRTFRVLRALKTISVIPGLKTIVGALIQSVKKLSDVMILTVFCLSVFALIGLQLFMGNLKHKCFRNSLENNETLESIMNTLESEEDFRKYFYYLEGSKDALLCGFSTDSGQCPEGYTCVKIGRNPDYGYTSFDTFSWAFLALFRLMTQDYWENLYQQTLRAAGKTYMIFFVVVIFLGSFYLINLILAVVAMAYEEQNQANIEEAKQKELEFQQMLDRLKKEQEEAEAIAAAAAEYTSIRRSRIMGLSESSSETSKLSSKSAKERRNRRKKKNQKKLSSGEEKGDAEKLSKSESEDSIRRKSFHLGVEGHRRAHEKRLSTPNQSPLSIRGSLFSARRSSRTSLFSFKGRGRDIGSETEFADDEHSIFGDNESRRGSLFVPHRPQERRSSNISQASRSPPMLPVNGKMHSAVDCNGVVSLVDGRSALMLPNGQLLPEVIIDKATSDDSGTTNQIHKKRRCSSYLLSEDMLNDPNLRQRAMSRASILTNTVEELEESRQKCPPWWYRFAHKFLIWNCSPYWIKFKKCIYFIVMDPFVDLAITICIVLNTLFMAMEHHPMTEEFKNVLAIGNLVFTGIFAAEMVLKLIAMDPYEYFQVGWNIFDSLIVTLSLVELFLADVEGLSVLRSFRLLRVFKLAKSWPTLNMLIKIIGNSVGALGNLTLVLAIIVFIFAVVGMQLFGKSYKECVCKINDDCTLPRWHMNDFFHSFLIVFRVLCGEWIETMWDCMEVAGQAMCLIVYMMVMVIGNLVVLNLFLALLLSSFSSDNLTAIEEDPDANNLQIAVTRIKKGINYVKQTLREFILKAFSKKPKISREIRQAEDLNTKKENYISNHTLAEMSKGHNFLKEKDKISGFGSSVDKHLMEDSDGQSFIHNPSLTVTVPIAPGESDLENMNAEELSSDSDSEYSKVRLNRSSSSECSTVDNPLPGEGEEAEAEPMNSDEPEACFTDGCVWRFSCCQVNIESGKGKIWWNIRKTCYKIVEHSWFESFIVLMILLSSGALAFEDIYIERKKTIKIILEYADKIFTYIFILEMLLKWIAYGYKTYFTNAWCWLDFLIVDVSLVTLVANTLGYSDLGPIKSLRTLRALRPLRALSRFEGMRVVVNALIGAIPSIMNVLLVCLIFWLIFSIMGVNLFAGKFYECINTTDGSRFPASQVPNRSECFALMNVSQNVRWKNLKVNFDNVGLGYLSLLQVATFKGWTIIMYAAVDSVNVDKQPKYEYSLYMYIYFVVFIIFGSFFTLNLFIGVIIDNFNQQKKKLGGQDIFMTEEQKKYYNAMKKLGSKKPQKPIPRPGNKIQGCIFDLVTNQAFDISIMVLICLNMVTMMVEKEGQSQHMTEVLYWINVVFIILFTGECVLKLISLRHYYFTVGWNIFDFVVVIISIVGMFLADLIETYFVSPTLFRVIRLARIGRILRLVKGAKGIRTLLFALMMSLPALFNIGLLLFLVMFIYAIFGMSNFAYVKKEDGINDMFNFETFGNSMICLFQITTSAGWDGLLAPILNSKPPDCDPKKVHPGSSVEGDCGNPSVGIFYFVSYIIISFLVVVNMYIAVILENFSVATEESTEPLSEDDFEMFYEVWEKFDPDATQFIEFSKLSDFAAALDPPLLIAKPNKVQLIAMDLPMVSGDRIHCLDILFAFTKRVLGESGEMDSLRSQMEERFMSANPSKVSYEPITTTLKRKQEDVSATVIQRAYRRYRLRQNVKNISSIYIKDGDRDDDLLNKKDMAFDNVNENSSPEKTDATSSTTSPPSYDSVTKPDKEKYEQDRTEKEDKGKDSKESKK

The target of a further assay is human Nav1.8 (Homo sapiens (Human), UniProt Q9Y5Y9). Nature of the assay: FRET-based membrane potential assay, recombinant human sodium channel Nav1.8. As to conditions: HEK293 cells stably expressing recombinant human Nav1.8; depolarization with veratridine (EC80) + scorpion venom. Type of assay: cell-based. In a few lines:
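HEK293 cells stably expressing Nav1.8 were loaded with CC2-DMPE/DiSBAC2(3) FRET voltage dyes. Compounds were added 3 min before depolarization with EC80 veratridine plus scorpion venom. The F440-480/F565-625 ratio was read on FLIPR; IC50 came from four-parameter Hill fits.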

Chain of human Nav1.8 (Q9Y5Y9 whole entry): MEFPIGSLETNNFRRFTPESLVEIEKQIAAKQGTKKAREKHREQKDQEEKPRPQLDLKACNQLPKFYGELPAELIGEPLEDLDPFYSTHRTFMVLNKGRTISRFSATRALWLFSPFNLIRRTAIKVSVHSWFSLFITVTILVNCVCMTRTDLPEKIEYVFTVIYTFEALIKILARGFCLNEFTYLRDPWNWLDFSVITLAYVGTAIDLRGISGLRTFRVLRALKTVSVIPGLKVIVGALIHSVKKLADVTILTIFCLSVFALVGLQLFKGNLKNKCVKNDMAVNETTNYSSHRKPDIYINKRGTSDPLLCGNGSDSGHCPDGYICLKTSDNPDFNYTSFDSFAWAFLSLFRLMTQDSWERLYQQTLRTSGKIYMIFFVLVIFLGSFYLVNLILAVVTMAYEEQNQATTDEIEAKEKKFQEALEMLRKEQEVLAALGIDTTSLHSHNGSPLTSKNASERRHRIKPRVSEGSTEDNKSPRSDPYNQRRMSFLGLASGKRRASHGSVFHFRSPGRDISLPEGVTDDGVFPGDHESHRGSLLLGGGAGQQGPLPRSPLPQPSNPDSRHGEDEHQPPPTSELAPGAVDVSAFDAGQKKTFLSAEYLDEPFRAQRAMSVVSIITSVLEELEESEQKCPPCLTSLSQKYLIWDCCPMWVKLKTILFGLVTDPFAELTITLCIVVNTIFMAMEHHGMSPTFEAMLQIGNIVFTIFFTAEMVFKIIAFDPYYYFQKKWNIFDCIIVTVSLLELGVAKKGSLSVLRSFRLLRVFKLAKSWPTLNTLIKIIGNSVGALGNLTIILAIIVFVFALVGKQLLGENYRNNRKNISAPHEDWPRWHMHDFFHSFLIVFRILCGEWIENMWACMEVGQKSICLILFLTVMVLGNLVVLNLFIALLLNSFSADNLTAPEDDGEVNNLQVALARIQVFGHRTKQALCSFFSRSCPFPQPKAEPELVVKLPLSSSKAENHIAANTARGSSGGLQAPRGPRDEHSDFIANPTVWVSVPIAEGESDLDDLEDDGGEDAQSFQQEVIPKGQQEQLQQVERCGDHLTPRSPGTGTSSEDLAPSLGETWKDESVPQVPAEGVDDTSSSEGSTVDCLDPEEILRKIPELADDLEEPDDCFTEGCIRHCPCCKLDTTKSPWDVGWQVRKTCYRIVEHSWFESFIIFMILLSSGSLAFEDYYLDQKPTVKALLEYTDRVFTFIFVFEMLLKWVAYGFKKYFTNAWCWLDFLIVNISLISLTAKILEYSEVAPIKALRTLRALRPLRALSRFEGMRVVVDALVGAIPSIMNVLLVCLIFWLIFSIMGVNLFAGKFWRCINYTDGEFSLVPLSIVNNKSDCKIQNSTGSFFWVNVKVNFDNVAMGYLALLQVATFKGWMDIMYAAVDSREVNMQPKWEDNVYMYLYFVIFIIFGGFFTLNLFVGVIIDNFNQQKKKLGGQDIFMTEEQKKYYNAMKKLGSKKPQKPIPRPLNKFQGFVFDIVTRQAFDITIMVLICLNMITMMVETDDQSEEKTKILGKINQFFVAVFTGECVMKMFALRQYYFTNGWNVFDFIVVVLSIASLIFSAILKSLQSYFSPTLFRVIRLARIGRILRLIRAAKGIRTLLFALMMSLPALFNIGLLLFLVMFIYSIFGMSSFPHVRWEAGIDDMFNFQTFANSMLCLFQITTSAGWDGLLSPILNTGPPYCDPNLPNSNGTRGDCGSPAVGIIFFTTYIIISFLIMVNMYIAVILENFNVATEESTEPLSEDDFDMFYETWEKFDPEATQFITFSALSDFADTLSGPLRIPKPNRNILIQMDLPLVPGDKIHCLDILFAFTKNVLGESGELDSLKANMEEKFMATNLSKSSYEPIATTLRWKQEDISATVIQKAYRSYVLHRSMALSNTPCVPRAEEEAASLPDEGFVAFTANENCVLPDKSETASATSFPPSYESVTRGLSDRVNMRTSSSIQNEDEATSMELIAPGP

Take `NC(=O)CN1CCN(c2cccc3c2cnn3-c2ccccc2F)C1=O` [Example 3, 2-{3-[1-(2-fluorophenyl)-1H-indazol-4-yl]-2-oxoimidazolidin-1-yl}acetamide]: the “SNL MPE (%)” value in assay [1] is on record as 30%.

For `CC(C)CC(=O)CN1CCN(c2cccc3c2cnn3-c2ccccc2F)C1=O` [Example 8, 1-[1-(2-fluorophenyl)-1H-indazol-4-yl]-3-(4-methyl-2-oxopentyl)imidazolidin-2-one], the “SNL MPE (%)” value in assay [1] worked out at 57%. Moreover, in assay [2] (OA dose 30 mg/kg), the “OA MPE (%)” value was 75%.

On to `CC1(NC(=O)CN2CCN(c3cccc4c3cnn4-c3ccccc3F)C2=O)CC1` [Example 333, 2-{3-[1-(2-fluorophenyl)-1H-indazol-4-yl]-2-oxoimidazolidin-1-yl}-N-(1-methylcyclopropyl)acetamide], for which the figures for the IC50 at human Nav1.7 and at human Nav1.8 were 2410 nM and 4760 nM, respectively. Also, in assay [2] (OA dose 30 mg/kg), the “OA MPE (%)” value is on record as 86%.

Consider `O=C1N(CC(=O)N2C[C@H]3C[C@@H]2CO3)CCN1c1cccc2c1cnn2-c1ccccc1F` [Example 25, 1-[1-(2-fluorophenyl)-1H-indazol-4-yl]-3-{2-[(1R,4R)-2-oxa-5-azabicyclo[2.2.1]hept-5-yl]-2-oxoethyl}imidazolidin-2-one], for which the IC50 (in general, the concentration at which inhibition is half-maximal) on human Nav1.7 was 499 nM; at human Nav1.8 it was 8510 nM. For the same molecule, in assay [2] (OA dose 10 mg/kg), the “OA MPE (%)” value worked out at 24%.

For `O=C(CN1CCN(c2cccc3c2cnn3-c2ccccc2F)C1=O)N1CCCC1` [Example 1, 1-[1-(2-fluorophenyl)-1H-indazol-4-yl]-3-[2-oxo-2-(pyrrolidin-1-yl)ethyl]imidazolidin-2-one], the “SNL MPE (%)” value in assay [1] is reported as 52%. Besides, the “OA MPE (%)” value in assay [2] (OA dose 30 mg/kg) came to 55%.

`O=C(CN1CCN(c2cccc3c2cnn3-c2ccccc2)C1=O)N1CC[C@H](F)C1` [Example 307, 1-{2-[(3S)-3-fluoropyrrolidin-1-yl]-2-oxoethyl}-3-(1-phenyl-1H-indazol-4-yl)imidazolidin-2-one]: the IC50 at human Nav1.7 stood at 520 nM; at human Nav1.8, 1420 nM. Further, the “OA MPE (%)” value in assay [2] (OA dose 30 mg/kg) was 62%.

With `O=C1N(Cc2ccccn2)CCN1c1cccc2c1cnn2-c1ccccc1F` [Example 12, 1-[1-(2-fluorophenyl)-1H-indazol-4-yl]-3-(pyridin-2-ylmethyl)imidazolidin-2-one], the “SNL MPE (%)” value in assay [1] was found to be 25%. Besides, the IC50 at human Nav1.7 is 1020 nM; at human Nav1.8, 321 nM.

Take `CCS(=O)(=O)N1CC(N2CCN(c3cccc4c3cnn4-c3ccccc3F)C2=O)C1` [Example 51, 1-[1-(ethylsulfonyl)azetidin-3-yl]-3-[1-(2-fluorophenyl)-1H-indazol-4-yl]imidazolidin-2-one]: the IC50 on human Nav1.7 came out at 3100 nM; on human Nav1.8, 1140 nM. Further, in assay [2] (OA dose 30 mg/kg), the “OA MPE (%)” value came out at 16%.

For `O=C(CN1CCN(c2cccc3c2cnn3-c2ccccc2F)C1=O)N1CC[C@H](F)C1` [Example 10, 1-[1-(2-fluorophenyl)-1H-indazol-4-yl]-3-{2-[(3S)-3-fluoropyrrolidin-1-yl]-2-oxoethyl}imidazolidin-2-one], in assay [1], the “SNL MPE (%)” value worked out at 0%. In assay [2] (OA dose 30 mg/kg), the “OA MPE (%)” value is listed as 91%.

On to `O=C(CN1CCN(c2cccc3c2cnn3-c2ccccc2F)C1=O)NC1(CO)CCC1` [Example 316, 2-{3-[1-(2-fluorophenyl)-1H-indazol-4-yl]-2-oxoimidazolidin-1-yl}-N-[1-(hydroxymethyl)cyclobutyl]acetamide], for which the figures for the IC50 on human Nav1.7 and on human Nav1.8 were 3110 nM and 1650 nM, respectively. Further, the “OA MPE (%)” value in assay [2] (OA dose 30 mg/kg) was found to be 63%.

For the molecule `O=C1N(Cc2nnc(C3CCC3)o2)CCN1c1cccc2c1cnn2-c1ccccc1F` [Example 50, 1-[(5-cyclobutyl-1,3,4-oxadiazol-2-yl)methyl]-3-[1-(2-fluorophenyl)-1H-indazol-4-yl]imidazolidin-2-one], the figures for the IC50 on human Nav1.7 and at human Nav1.8 were 1530 nM and 3080 nM, respectively. The “OA MPE (%)” value in assay [2] (OA dose 10 mg/kg) is reported as 7%.

For `CC(C)OC(=O)N1CCN(c2cccc3c2cnn3-c2ccccc2F)C1=O` [Example 4, isopropyl 3-[1-(2-fluorophenyl)-1H-indazol-4-yl]-2-oxoimidazolidine-1-carboxylate], in assay [1], the “SNL MPE (%)” value is given as 68%. In addition, the IC50 at human Nav1.7 turned out to be 223 nM; on human Nav1.8, 230 nM.

As to `CCC1(O)CN(C(=O)CN2CCN(c3cccc4c3cnn4-c3ccccc3F)C2=O)C1` [Example 205, 1-[2-(3-ethyl-3-hydroxyazetidin-1-yl)-2-oxoethyl]-3-[1-(2-fluorophenyl)-1H-indazol-4-yl]imidazolidin-2-one], the IC50 at human Nav1.7 came to 778 nM; on human Nav1.8 it was 1500 nM. Further, the “OA MPE (%)” value in assay [2] (OA dose 30 mg/kg) is on record as 46%.

Consider `O=C(CN1CCN(c2cccc3c2cnn3-c2ccccc2F)C1=O)N1CCC[C@@H](O)C1` [Example 52, 1-[1-(2-fluorophenyl)-1H-indazol-4-yl]-3-{2-[(3R)-3-hydroxypiperidin-1-yl]-2-oxoethyl}imidazolidin-2-one], for which the IC50 on human Nav1.7 is 2490 nM; on human Nav1.8, 10100 nM. Besides, the “OA MPE (%)” value in assay [2] (OA dose 30 mg/kg) amounted to 27%.

For `O=C1N(Cc2cocn2)CCN1c1cccc2c1cnn2-c1ccccc1F` [Example 26, 1-[1-(2-fluorophenyl)-1H-indazol-4-yl]-3-(1,3-oxazol-4-ylmethyl)imidazolidin-2-one], the “SNL MPE (%)” value in assay [1] is 54%. Also, the values for the IC50 on human Nav1.7 and at human Nav1.8 were 382 nM and 517 nM, respectively.

In the case of `CC(C)(C)OC(=O)N1CCN(c2cccc3c2cnn3-c2ccccc2F)C1=O` [Example 2, tert-butyl 3-[1-(2-fluorophenyl)-1H-indazol-4-yl]-2-oxoimidazolidine-1-carboxylate], the “SNL MPE (%)” value in assay [1] is on record as 38%.

As for `Cc1nc(CN2CCCN(c3cccc4c3cnn4-c3ccccc3F)C2=O)oc1C` [Example 48, 1-[(4,5-dimethyl-1,3-oxazol-2-yl)methyl]-3-[1-(2-fluorophenyl)-1H-indazol-4-yl]tetrahydropyrimidin-2(1H)-one], the IC50 on human Nav1.7 came out at 2010 nM; on human Nav1.8, 1140 nM. The “OA MPE (%)” value in assay [2] (OA dose 10 mg/kg) is on record as 20%.
